Assay [1] concerns the target T1, AAK1 (Homo sapiens, UniProt Q2M2I8).
T1 construct: NP_055726.2
Briefly: P81 filter plate assay. The assay is classed as biochemical. The settings on record: full-length human AAK1, Mu2 substrate, 33P-ATP. In outline: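 Full-length human AAK1 (0.2 nM, 2×) was pre-incubated 10 min at RT with compounds (top concentration 96 μM in the dilution plate), then reacted 1 h at RT with full-length human Mu2 (0.2 μM, 2×), cold ATP (2 μM, 2×) and ³³P-ATP. Reactions were stopped with phosphoric acid and captured on P81 filters for scintillation counting.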

Assay [2] deals with T1, AAK1. As to the kind of experiment: HEK281 cell-based assay (CBA). As to conditions: HEK293F cells transfected with full length human AAK1 and AP2M1; phospho-mu2 Western blot; 3 hours incubation. As to the method: HEK293F cells were cultured in media containing DMEM (Gibco, cat. #11965), 10% FBS (SAFC Biosciences, cat. #12103C), 1× GPS (glutamine, penicillin and streptomycin). On day one, cells were plated on a 10 cm dish so that they are ˜80% confluent at time of transfection. Roughly 12 million cells were in a 10 cm dish at time of transfection. On day two, each dish was transfected with 48 ug DNA and 144 ul Lipofectamine 2000 (Invitrogen, cat. #11668-019). The DNA was comprised of a mixture (per 10 cm dish) containing 3 ug AAK1/HA/pIRES (full length human, NCBI accession no. NP_055726.2), 45 μg Flag/AP2MI/pcDNA (full length human), and 1.5 ml OPTI-MEM. The Lipofectamine 2000 is made up of a mixture (per 10 cm dish) containing 144 μl Lipofectamine 2000 and 1.5 ml OPTI-MEM. Each mixture was transferred to individual 15 ml tubes and incubated at RT for 5 minutes, and then the two mixes were combined and incubated at RT for 20 minutes.
Growth media was then aspirated from each 10 cm plate and replaced with 10 ml of DMEM+10% FBS (no GPS). Finally, 3 ml DNA/Lipofectamine mix was added to each 10 cm dish and mix gently followed by incubate of plate overnight at 37° C. and 5% CO2.
On day three, compounds were diluted in 100% DMSO at 1000× final concentration, followed by 3-fold serial dilutions for a total of 5 concentrations tested. Four compounds were tested per 10 cm dish. One ul of each compound dilution was then pipetted into a deep-well, 96-well plate, followed by addition of 500 μl DMEM+0.5% FBS into each well for a 2× final concentration of each compound. Cells were resuspended in a 10 cm dish by simple pipetting (HEK293 cells come off the plate that easy at this point) and then transferred to a 50 ml conical tube and pelleted by centrifugation at 1000 rpm for 5 min. Cell pellets were then resuspended in 2.75 ml DMEM+0.5% FBS per 10 cm dish and 100 μl of cell suspension transferred into each well of 96-well TC plate. Finally, 100 μl of 2× compound diluted in DMEM+0.5% FBS was then added into wells containing cell suspension for a 1× final concentration. Plates were then incubated at 37° C. and 5% CO2 for 3 hours followed by transferring of cell suspensions from each well into 12-tube PCR strips. The PCR strips were spun in a tip rack at 1000 rpm for 5 minutes to pellet cells and media was then removed by pipetting without disturbing the cell pellet.
To prepare for Western Blot analysis, cell pellets were resuspend in 40 ul 1× LDS-PAGE sample buffer (Invitrogen, cat.# NP0008)+2× Halt phophatase and protease inhibitor cocktail (Thermo Scientific, cat. #1861284), followed by sonicating each with microtip sonicator set at 5 for 8-10 seconds. Five ul of 10× NuPage Sample Reducing Agent (with 50 mM DTT) was to each sample followed by heat denaturing at 70 C for 10 min on PCR machine. A total of 10 μl per sample was loaded into each lane of a 4-20% Tris-Glycine Criterion 26-well gel (Biorad, cat. #345-0034) for the phospho-mu2 blot and 10 μl per lane in a 4-12% Bis-Tris (+MES buffer) NuPAGE 26-well gel (Invitrogen, cat.# WG1403BX10) for the mu2 blot. For controls, 2 ng of phospho-mu2 or 20 ng mu2/Flag proteins were loaded in the last well of each gel. After SDS-PAGE, samples on each gel were transferred to PVDF membrane using an iBlot and membranes were blocked for one hour in TBST+5% milk, followed by wash 3× for 5-10 min with TBST. Criterion gels were probed with rabbit anti-phospho-mu2 (1:5000; a rabbit polyclonal antibody produced by New England Peptide and affinity purified at Lexicon) in TBST+5% BSA, whereas, NuPAGE gels were probed with mouse anti-Flag (1:500; Sigma, cat.# F1804) in TBST+5% milk, and these primary antibodies were incubated overnight at 4° C. on a rocker.
A general note: Immunoblotting shows a protein as a band on a membrane.

Some results are limits rather than exact numbers.

T1 sequence (Q2M2I8 1-863 isoform Q2M2I8-2): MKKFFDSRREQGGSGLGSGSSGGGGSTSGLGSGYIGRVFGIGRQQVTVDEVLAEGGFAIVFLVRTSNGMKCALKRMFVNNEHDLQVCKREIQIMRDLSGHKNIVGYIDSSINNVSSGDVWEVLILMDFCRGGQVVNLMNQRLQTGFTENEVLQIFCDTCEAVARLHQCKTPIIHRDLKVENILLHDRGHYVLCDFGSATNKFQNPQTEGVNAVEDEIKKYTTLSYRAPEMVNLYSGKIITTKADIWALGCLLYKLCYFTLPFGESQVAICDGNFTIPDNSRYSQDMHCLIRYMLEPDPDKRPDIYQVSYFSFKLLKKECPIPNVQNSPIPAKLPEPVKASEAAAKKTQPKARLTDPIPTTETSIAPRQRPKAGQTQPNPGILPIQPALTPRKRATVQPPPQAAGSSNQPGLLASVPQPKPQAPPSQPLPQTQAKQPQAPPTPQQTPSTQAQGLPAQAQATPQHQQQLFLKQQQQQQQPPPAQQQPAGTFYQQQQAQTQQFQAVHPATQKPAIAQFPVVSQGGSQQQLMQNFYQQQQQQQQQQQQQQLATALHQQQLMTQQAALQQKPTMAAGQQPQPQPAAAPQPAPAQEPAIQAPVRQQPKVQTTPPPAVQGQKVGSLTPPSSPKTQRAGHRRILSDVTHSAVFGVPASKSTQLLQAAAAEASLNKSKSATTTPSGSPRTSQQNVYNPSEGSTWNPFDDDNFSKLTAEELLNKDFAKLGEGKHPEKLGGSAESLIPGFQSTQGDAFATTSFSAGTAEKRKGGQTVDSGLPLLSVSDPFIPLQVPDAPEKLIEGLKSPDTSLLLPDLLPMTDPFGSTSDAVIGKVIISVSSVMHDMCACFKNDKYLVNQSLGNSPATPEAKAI

By IC50 is commonly meant the concentration at which inhibition is half-maximal. As to `COc1ccc(F)cc1-c1cnn2ccc(N3CCN(C(=O)[C@@H](N)C(C)(C)C)CC3)nc12` [(S)-2-amino-1-(4-(3-(5-fluoro-2-methoxyphenyl)pyrazolo[1,5-a]pyrimidin-5-yl)piperazin-1-yl)-3,3-dimethylbutan-1-one], the IC50 on AAK1 [1] and on AAK1 [2] was not above 10 nM each time.

Turning to `CC(C)OC(=O)N1CCN(c2ccn3ncc(-c4ccc(OCCN)cc4)c3n2)CC1` [isopropyl 4-(3-(4-(2-aminoethoxy)phenyl)pyrazolo[1,5-a]pyrimidin-5-yl)piperazine-1-carboxylate], the results for the IC50 against AAK1 [1] and at AAK1 [2] were not above 10 nM and not above 100 nM, respectively.

In the case of `COc1ncccc1-c1cnn2ccc(NC[C@@H]3CCCN3C(=O)OC(C)C)nc12` [(S)-isopropyl 2-(((3-(2-methoxypyridin-3-yl)pyrazolo[1,5-a]pyrimidin-5-yl)amino)methyl)pyrrolidine-1-carboxylate], the IC50 on AAK1 [1] and on AAK1 [2] was not above 10 nM each time.

Take `COc1ccc(F)cc1-c1cnn2ccc(N3CC[C@H](N(C)C(=O)OC(C)C)C3)nc12` [(S)-isopropyl (1-(3-(5-fluoro-2-methoxyphenyl)pyrazolo[1,5-a]pyrimidin-5-yl)pyrrolidin-3-yl)(methyl)carbamate]: the results for the IC50 against AAK1 [1] and against AAK1 [2] were not above 10 nM and not above 100 nM, respectively.

Regarding `CC(C)C[C@H](N)C(=O)N1CCN(c2ccn3ncc(-c4ccccc4)c3n2)CC1` [(S)-2-amino-4-methyl-1-(4-(3-phenylpyrazolo[1,5-a]pyrimidin-5-yl)piperazin-1-yl)pentan-1-one], the IC50 on AAK1 [1] and against AAK1 [2] was not above 10 nM each time.

Regarding `CC(C)[C@H](N)C(=O)N1CCN(c2ccn3ncc(-c4ccccc4F)c3n2)CC1` [(S)-2-amino-1-(4-(3-(2-fluorophenyl)pyrazolo[1,5-a]pyrimidin-5-yl)piperazin-1-yl)-3-methylbutan-1-one], the 50% inhibitory concentration (IC50) on AAK1 [1] and against AAK1 [2] was not above 10 nM each time.

With `COc1ncccc1-c1cnn2ccc(N3CCN(C(=O)C4(N)CCOC4)CC3)nc12` (centres unmarked) [(3-aminotetrahydrofuran-3-yl)(4-(3-(2-methoxypyridin-3-yl)pyrazolo[1,5-a]pyrimidin-5-yl)piperazin-1-yl)methanone], the figures for the IC50 on AAK1 [1] and on AAK1 [2] were not above 10 nM and not above 100 nM, respectively.

As to `COc1ncccc1-c1cnn2ccc(N3CCN(C(=O)[C@@H](N)[C@@H](C)OC)CC3)nc12` [(2S,3R)-2-amino-3-methoxy-1-(4-(3-(2-methoxypyridin-3-yl)pyrazolo[1,5-a]pyrimidin-5-yl)piperazin-1-yl)butan-1-one], the IC50 on AAK1 [1] was not above 10 nM; against AAK1 [2], not above 100 nM.

For the molecule `COc1ncccc1-c1cnn2ccc(NCCCOC(C)(C)C)nc12` [N-(3-(tert-butoxy)propyl)-3-(2-methoxypyridin-3-yl)pyrazolo[1,5-a]pyrimidin-5-amine], the IC50 against AAK1 [1] is not above 10 nM; on AAK1 [2], not above 100 nM.

Take `COc1nc(C)ccc1-c1cnn2ccc(N3CC[C@H](N(C)C(=O)OC(C)C)C3)nc12` [(S)-isopropyl (1-(3-(2-d3-methoxy-6-methylpyridin-3-yl)pyrazolo[1,5-a]pyrimidin-5-yl)pyrrolidin-3-yl)(methyl)carbamate]: the results for the 50% inhibitory concentration (IC50) against AAK1 [1] and at AAK1 [2] were not above 10 nM and not above 100 nM, respectively.

For `CC(C)(C)[C@H](N)C(=O)N1CCN(c2ccn3ncc(-c4ccccc4)c3n2)CC1` [(S)-2-amino-3,3-dimethyl-1-(4-(3-phenylpyrazolo[1,5-a]pyrimidin-5-yl)piperazin-1-yl)butan-1-one], the IC50 against AAK1 [1] is not above 10 nM; against AAK1 [2] it was not above 100 nM.

For the molecule `COc1ncc(-c2cnn3ccc(N4CCN(C(=O)OC(C)C)CC4)nc23)c(OC)n1` [isopropyl 4-(3-(2,4-dimethoxypyrimidin-5-yl)pyrazolo[1,5-a]pyrimidin-5-yl)piperazine-1-carboxylate], the IC50 is not above 10 nM on AAK1 [1] and not above 100 nM against AAK1 [2].

Consider `[2H]C1([2H])N(C(=O)OC(C)C)C([2H])([2H])C([2H])([2H])N(c2ccn3ncc(-c4ccc(C)nc4OC)c3n2)C1([2H])[2H]` [isopropyl 4-(3-(2-methoxy-6-methylpyridin-3-yl)pyrazolo[1,5-a]pyrimidin-5-yl)-d8-piperazine-1-carboxylate], for which the IC50 against AAK1 [1] and at AAK1 [2] was not above 10 nM in each case.

As to `COc1ccccc1-c1cnn2ccc(N3CCN(C(=O)[C@@H](N)C(C)C)CC3)nc12` [(S)-2-amino-1-(4-(3-(2-methoxyphenyl)pyrazolo[1,5-a]pyrimidin-5-yl)piperazin-1-yl)-3-methylbutan-1-one], the 50% inhibitory concentration (IC50) on AAK1 [1] and against AAK1 [2] was not above 10 nM in each case.

As for `COc1ccc(F)cc1-c1cnn2ccc(N3CCN(C(=O)[C@@H](N)C(C)C)CC3)nc12` [(S)-2-amino-1-(4-(3-(5-fluoro-2-methoxyphenyl)pyrazolo[1,5-a]pyrimidin-5-yl)piperazin-1-yl)-3-methylbutan-1-one], the IC50 at AAK1 [1] and on AAK1 [2] was not above 10 nM in each case.

With `COc1ncccc1-c1cnn2ccc(N3CCN(C(=O)[C@@H](N)CC(C)C)CC3)nc12` [(S)-2-amino-1-(4-(3-(2-methoxypyridin-3-yl)pyrazolo[1,5-a]pyrimidin-5-yl)piperazin-1-yl)-4-methylpentan-1-one], the concentration for half-maximal inhibition (IC50) at AAK1 [1] and against AAK1 [2] was not above 10 nM each time.

As for `COc1ncccc1-c1cnn2ccc(N3CCN(C(=O)C4(N)CCCC4)CC3)nc12` [(1-aminocyclopentyl)(4-(3-(2-methoxypyridin-3-yl)pyrazolo[1,5-a]pyrimidin-5-yl)piperazin-1-yl)methanone], the IC50 against AAK1 [1] and against AAK1 [2] was not above 10 nM in each case.

`COCC(C)OC(=O)N1CCN(c2ccn3ncc(-c4cccnc4OC)c3n2)CC1` (centres unmarked) [1-methoxypropan-2-yl 4-(3-(2-methoxypyridin-3-yl)pyrazolo[1,5-a]pyrimidin-5-yl)piperazine-1-carboxylate]: the IC50 against AAK1 [1] and against AAK1 [2] was not above 10 nM in each case.

Regarding `COc1ncc(F)cc1-c1cnn2ccc(N3CCN(C(=O)OC(C)(C)C)CC3)nc12` [tert-butyl 4-(3-(5-fluoro-2-methoxypyridin-3-yl)pyrazolo[1,5-a]pyrimidin-5-yl)piperazine-1-carboxylate], the IC50 on AAK1 [1] is not above 10 nM; against AAK1 [2] it was not above 100 nM.

For `COc1ncccc1-c1cnn2ccc(N3CCN(C(=O)OC4COC4)CC3)nc12` [oxetan-3-yl 4-(3-(2-methoxypyridin-3-yl)pyrazolo[1,5-a]pyrimidin-5-yl)piperazine-1-carboxylate], the IC50 on AAK1 [1] and at AAK1 [2] was not above 10 nM each time.

Regarding `COc1ccc(F)cc1-c1cnn2ccc(N3CCN(C(=O)OC(C)C)CC3)nc12` [isopropyl 4-(3-(5-fluoro-2-methoxyphenyl)pyrazolo[1,5-a]pyrimidin-5-yl)piperazine-1-carboxylate], the IC50 against AAK1 [1] and against AAK1 [2] was not above 10 nM in each case.

In the case of `COc1ncccc1-c1cnn2ccc(N3CCN(C(=O)N4CCCCC4)CC3)nc12` [(4-(3-(2-methoxypyridin-3-yl)pyrazolo[1,5-a]pyrimidin-5-yl)piperazin-1-yl)(piperidin-1-yl)methanone], the values for the 50% inhibitory concentration (IC50) at AAK1 [1] and against AAK1 [2] were not above 10 nM and not above 100 nM, respectively.

These data come from patent publication US9403832B2, “Pyrazolo[1,5-a]pyrimidine-based compounds, compositions comprising them, and methods of their use” (Lexicon Pharmaceuticals, Inc., priority 2012, dated 2016).
